Experimental data taken from PMC5653977 (EMBO Molecular Medicine, 2017).
Like-named read-outs stand apart in the source and are kept apart here.

Tested on: NRG1-ERBB4 signaling
Assay: Nrg1-ERBB4-PIK3R1 split TEV co-culture compound screen of the NIH Clinical Collection
Type: cell-based, human
Source text: For our HTS‐compatible split TEV assay approach, human full‐length ERBB4‐Cyt1 was fused to the NTEV fragment, a TEV protease cleavage site (tevS) and the artificial co‐transcriptional activator Gal4‐VP16 (ERBB4‐NTEV‐tevS‐GV); human PIK3R1 was fused to the CTEV fragment (PIK3R1‐CTEV) (Fig 1A). Upon ERBB4 activation, PIK3R1 is recruited to the receptor resulting in a reconstituted protease activity that cleaves off GV. In turn, released GV translocates to the nucleus and binds to upstream activating sequences (UAS) to activate the transcription of a firefly luciferase reporter gene (Fig 1A). A constitutively expressed Renilla luciferase driven under the control of the human thymidine kinase (TK) promoter was used as control to address off‐target effects related to toxicity.
For small molecule screening, the NIH‐NCC Clinical Collection library (sets NCC‐003 and NCC‐201) was used containing 727 small molecules that are FDA‐approved and have a history in clinical applications (www.nihclinicalcollection.com). A Hamilton Labstar robot connected to 37 and 4°C incubators for cell incubation and compound storage and application (Cytomat automated incubator, ThermoScientific) and to a luciferase reader (Berthold Technologies) was used to automatically perform the screening. […] Each batch was screened three times.
For one 96‐well plate, 4 × 10^6 PC12 cells were harvested and diluted in 5 ml assay medium (phenol red‐free DMEM (low glucose, Life Technologies), 10% FCS, 5% HS, no antibiotics). The split TEV assay plasmids (2 μg pcDNA3_ERBB4‐NTEV‐tevS‐GV‐2xHA, 2 μg pTag4C_PIK3R1‐CTEV‐2xHA, 2 μg p5xUAS_firefly luciferase, 2 μg pTK_Renilla luciferase, and 0.5 μg pECFP‐C1 for examining transfection efficiency) were diluted in 2.5 ml Opti‐MEM (Life Technologies) and vortexed. In parallel, 20 μl of the transfection reagent Lipofectamine 2000 was diluted in 2.5 ml Opti‐MEM and vortexed.
For plating of one 96‐well plate, 10 ml suspension, containing the 4 × 10^6 in solution‐transfected cells, was placed in the bubble paddle reservoir of the Hamilton Cellstar robot. 100 μl was seeded per 96‐well using the 96‐tip pipetting head. The homogeneity of the cell suspension was guaranteed over time by mild stirring using the paddling device inside the reservoir. For five plates each, 50 ml of additional cell suspension was used to allow for losses of inaccessible volume.
The cells were allowed to express the plasmids for 24 h before compounds were added. Proper expression and transfection efficiency were verified by ECFP expression on a clear control plate. The compounds were applied in a final concentration of 10 μM using DMSO as diluent. […] Thirty minutes later, 10,000 Nrg1‐expressing PC12 cells in 100 μl assay medium were seeded on top. 24 h after addition of the compounds, the cells were lysed using 40 μl Passive Lysis buffer (Promega) and subjected to a Dual Luciferase Assay (Promega) according to the manufacturer's instructions. The data were analyzed in R Bioconductor using the package cellHTS2 (http://www.bioconductor.org/packages/devel/bioc/html/cellHTS2.html), assessed using the z‐score, and visualized using the program Mondrian (http://stats.math.uni-augsburg.de/mondrian/).

[1] = compound screen of the NIH Clinical Collection, sheet raw data NCC-003, compounds ranked by Z-score
[2] = NIH Clinical Collection NCC-003 raw data, compounds ranked by Z-score, 'flagged' given instead of a Z-score
[3] = compounds at 10 μM, 24 h, PC12 split TEV assay cells co-cultured with Nrg1-expressing PC12 cells, analysed with cellHTS2

Cc1ncc([N+](=O)[O-])n1CC(C)O (stereo not shown)
Z-SCORE [1]: 1.35

CN1CCN(CCCN2c3ccccc3Sc3ccc(Cl)cc32)CC1
Z-SCORE [1]: -0.47

Cl.Nc1c2c(nc3c1CCC3)CCCC2
Z-SCORE [1]: -0.08

Clc1cccc(Cl)c1NC1=NCCN1
Z-SCORE [1]: 0.34

CC(C)c1ccc2c(c1)c(SC(C)(C)C)c(CC(C)(C)C(=O)O)n2Cc1ccc(Cl)cc1
Z-SCORE [1]: 0.23

C[C@]12CC[C@@H]3c4ccc(OS(=O)(=O)[O-])cc4CC[C@H]3[C@@H]1CCC2=O.[Na+]
Z-SCORE [1]: 0.37

O=C1N(c2ccccc2)c2ccccc2C1(Cc1ccncc1)Cc1ccncc1
Z-SCORE [1]: -0.78

Nc1ccn([C@@H]2O[C@H](CO)[C@@H](O)[C@@H]2O)c(=O)n1
Z-SCORE [2]: -1.99

Cc1c(O)c(=O)ccn1C
Z-SCORE [1]: 0.19

CCc1oc2ccccc2c1C(=O)c1cc(Br)c(O)c(Br)c1
Z-SCORE [1]: 0.47

COc1cc(-c2ccc(=O)[nH]n2)ccc1OC(F)F
Z-SCORE [1]: 0.32

O=C(NCCN1CCOCC1)c1ccc(Cl)cc1
Z-SCORE [1]: -0.92

O=C1N[C@H](C(=O)O)CS1
Z-SCORE [1]: 0.84

CCN(CC)CC1CCCCN1CC(=O)N1c2ccccc2C(=O)Nc2cccnc21 (stereo not shown)
Z-SCORE [1]: 1

CS(=O)(=O)O.O=C1CC2(CCCC2)CC(=O)N1CCNCC1COc2ccccc2O1 (stereo not shown)
Z-SCORE [1]: 0.35

Clc1ccc2c(c1)CCc1cccnc1C2=C1CCNCC1
Z-SCORE [1]: 0.4

Cl.Nc1c2c(nc3ccccc13)CCCC2
Z-SCORE: 1.29

CO[C@H]1O[C@@H]2O[C@@]3(C)CC[C@H]4[C@H](C)CC[C@@H]([C@H]1C)[C@@]24OO3
Z-SCORE [1]: -1.01

OC[C@H]1O[C@@H](n2cnc3c(N[C@H]4CCC[C@@H]4O)ncnc32)[C@H](O)[C@@H]1O
Z-SCORE [1]: -0.71

O=C([O-])Cc1ccccc1Nc1c(Cl)cccc1Cl.[Na+]
Z-SCORE [1]: 0.02

Oc1cc2c(cc1O)[C@@H]1c3ccccc3CN[C@H]1CC2
Z-SCORE [1]: 0.99

C=CC1=C(C(=O)O)N2C(=O)[C@@H](NC(=O)/C(=N\O)c3csc(N)n3)[C@H]2SC1
Z-SCORE [1]: 0.68

C[C@]12C=CC(=O)C=C1CC[C@@H]1[C@@H]2[C@@H](O)C[C@@]2(C)[C@H]1CC[C@]2(O)C(=O)COC(=O)CCC(=O)[O-].[Na+]
Z-SCORE [1]: 0.67

C[C@H](N[C@@H](CCc1ccccc1)C(=O)O)C(=O)N1CCC[C@H]1C(=O)O
Z-SCORE [1]: -0.43

CC(=O)SCC(Cc1ccccc1)C(=O)NCC(=O)OCc1ccccc1 (stereo not shown)
Z-SCORE [1]: 0

CCC(C)(C)NC(=Nc1cccnc1)NC#N
Z-SCORE [1]: 0.49

CN(Cc1cnc2nc(N)nc(N)c2n1)c1ccc(C(=O)N[C@@H](CCC(=O)O)C(=O)O)cc1
Z-SCORE [1]: 0.85

CNC(=N)NCCC[C@H](N)C(=O)O
Z-SCORE: -0.42

CC[C@@H](C(N)=O)N1CCCC1=O
Z-SCORE [1]: -0.28

CC1(C)S[C@@H]2[C@H](/N=C/N3CCCCCC3)C(=O)N2[C@H]1C(=O)O
Z-SCORE [1]: 1.1

Cc1cccc(CCN2CCC(C(=O)c3ccc(NS(C)(=O)=O)cc3)CC2)n1.Cl.Cl
Z-SCORE [1]: -0.17

CC(=O)NCCCCCCNC(C)=O
Z-SCORE [1]: 1.08

CCOC(=O)C1(CCCCCCOc2ccc(Cl)cc2)CO1 (stereo not shown)
Z-SCORE [1]: 0.96

N=C(N)NC(=O)c1nc(Cl)c(N)nc1N
Z-SCORE [1]: 0.85

CN1CC(=O)N2[C@H](c3ccc4c(c3)OCO4)c3[nH]c4ccccc4c3C[C@@H]2C1=O
Z-SCORE [1]: 0.97

CCCc1nc2c(C)cc(-c3nc4ccccc4n3C)cc2n1Cc1ccc(-c2ccccc2C(=O)O)cc1
Z-SCORE [1]: 0.38

CCN(CC)C(=S)SSC(=S)N(CC)CC
Z-SCORE [1]: -0.22

COc1ccc(/C=C/C(=O)Nc2ccccc2C(=O)O)cc1OC
Z-SCORE [2]: -1.17

CS(=O)(=O)c1ccc(-c2cc(Br)sc2-c2ccc(F)cc2)cc1
Z-SCORE [1]: 0.49

CCCCC(=O)N(Cc1ccc(-c2ccccc2-c2nnn[nH]2)cc1)[C@H](C(=O)O)C(C)C
Z-SCORE [1]: -0.23

Br.COc1ccc2c(c1)[C@@]13CCCC[C@H]1[C@@H](C2)N(C)CC3
Z-SCORE [2]: -1.1

CC(Cc1ccccc1)(NC(=O)CN)c1ccccc1 (racemic)
Z-SCORE [1]: 0.97

CNCC(O)c1ccc(O)c(O)c1.Cl (racemic) [(+/-)-Epinephrine hydrochloride, reference compound]
Z-SCORE [3]: -0.69

Cl.NCC(O)c1ccc(O)c(O)c1 (racemic) [(+/-)-NOREPINEPHRINE HYDROCHLORIDE, reference compound]
Z-SCORE [3]: 1.11

Cl.OC1CCCCC1N1CCC(c2ccccc2)CC1 (racemic) [(±)-Vesamicol hydrochloride]
Z-SCORE [1]: -0.04

COC(=O)C1=C(C)NC(C)=C(C(=O)O[C@@H]2CCCN(Cc3ccccc3)C2)[C@@H]1c1cccc([N+](=O)[O-])c1.Cl (racemic) [BENIDIPINE HCl]
Z-SCORE [2]: -1.41

CC(C)(S)C(N)C(=O)O (racemic) [DL-PENICILLAMINE, reference compound]
Z-SCORE [3]: 2.02

O=C1c2c(O)cc(O)cc2OC(c2ccc(O)c(O)c2)C1O (racemic) [TAXIFOLIN-(+/-)]
Z-SCORE [1]: -0.12

COc1ccc([C@@H]2Sc3ccccc3N(CCN(C)C)C(=O)[C@@H]2OC(C)=O)cc1.Cl (relative stereo) [(+)-CIS-DILTIAZEM HYDROCHLORIDE, reference compound]
Z-SCORE [3]: -0.13

C[N+]1(C)CCN(c2ccccc2)CC1.[I-] [1,1-DIMETHYL-4-PHENYLPIPERAZINIUM IODIDE]
Z-SCORE [1]: 2.45

c1ccc(Cn2ccnc2)cc1 [1-BENZYLIMIDAZOLE]
Z-SCORE [1]: -0.1

Nc1ccn([C@H]2CC[C@@H](CO)O2)c(=O)n1 [2',3'-DIDEOXYCYTIDINE]
Z-SCORE [1]: 1.38

O=c1[nH]cnc2c1ncn2[C@H]1CC[C@@H](CO)O1 [2',3'-DIDEOXYINOSINE]
Z-SCORE [1]: -0.13

NCCc1ccccn1 [2-(2-AMINOETHYL)PYRIDINE]
Z-SCORE [1]: 2.15

Nc1nc(Cl)nc2c1ncn2[C@@H]1O[C@H](CO)[C@@H](O)[C@H]1O [2-CHLOROADENOSINE]
Z-SCORE [1]: 0.61

Nc1nc(Cl)nc2c1ncn2[C@H]1C[C@H](O)[C@@H](CO)O1 [2-Chloro-2'-deoxyadenosine, reference compound]
Z-SCORE [2]: -3.5 | Z-SCORE [3]: -3.5

Nc1ncnc2c1ncn2[C@@H]1O[C@H](CO)C[C@H]1O [3'-Deoxydenosine, reference compound]
Z-SCORE [1]: 5.88 | Z-SCORE [3]: 5.88

OCc1cccnc1 [3-PYRIDINEMETHANOL]
Z-SCORE [2]: -1.1

CC(=O)O.NCc1ccc(S(N)(=O)=O)cc1 [4-(AMINOMETHYL)BENZENESULFONAMIDE ACETATE, reference compound]
Z-SCORE [3]: 0.49

Nc1ccc(O)c(C(=O)O)c1 [5-Amino-2-hydroxy-benzoic acid]
Z-SCORE [1]: 1.62

Nc1ncn([C@@H]2O[C@H](CO)[C@@H](O)[C@H]2O)c(=O)n1 [5-Azacytidine, reference compound]
Z-SCORE [3]: flagged

Nc1nc(=O)[nH]cc1F [5-FLUOROCYTOSINE]
Z-SCORE [1]: -0.59

O=c1[nH]cc(F)c(=O)[nH]1 [5-FLUOROURACIL, reference compound]
Z-SCORE [3]: -1.82

COc1ccc2[nH]cc(CCN)c2c1 [5-Methoxytryptamine]
Z-SCORE [1]: 0.65

CCCCCCCCCOc1ccc2[nH]cc(CCN)c2c1 [5-Nonyloxytryptamine]
Z-SCORE [2]: flagged

O=c1ncc(F)c[nH]1 [5-fluoro-2-pyrimidone]
Z-SCORE [1]: -0.03

Nc1ccc2cn[nH]c2c1 [6-AMINOINDAZOLE]
Z-SCORE [1]: 0.45

O=c1cnn([C@@H]2O[C@H](CO)[C@@H](O)[C@H]2O)c(=O)[nH]1 [6-AZAURIDINE]
Z-SCORE [2]: -1.32

O=[N+]([O-])c1cccc2cn[nH]c12 [7-NITROINDAZOLE]
Z-SCORE [1]: 0.29

CCCCC(=O)O[C@H]1CC[C@H]2[C@@H]3CCc4cc(O)ccc4[C@H]3CC[C@]12C [17-BETA-ESTRADIOL 17-VALERATE, reference compound]
Z-SCORE [3]: -0.44

C#C[C@]1(OC(C)=O)CC[C@H]2[C@@H]3CCC4=CC(=O)CC[C@@H]4[C@H]3CC[C@@]21C [19-NORETHINDRONE ACETATE, reference compound]
Z-SCORE [3]: -0.99
